These compounds were tested against T1, PI3K delta (Homo sapiens, UniProt O00329) (assay: PI3K delta kinase assay (Kinase-Glo luminescence)). Conditions: read-out: EPK_PI3Kdelta/IC50.
T1 construct: for the full-length p110-d subunit are generated and fused by overlapping PCR; His tag (C); made in house; host or cells: baculovirus BV1060; Tn5 (Trichoplusia ni) or TiniPro insect cells
Format: biochemical
Experimental: In a more preferred assay, the kinase reaction is performed in a final volume of 10 μL per well of a low volume non binding CORNING, 384 well black plate (Cat. No. #3676). The final concentrations of ATP and phosphatidyl inositol (PI) in the assay are 1 μM and 10 μg/mL respectively. The reaction is started by the addition of ATP.
The components of the assay are added per well as follows:
50 nL test compounds in 90% DMSO per well, in columns 1-20, 8 concentrations (⅓ and 1/3.33 serial dilution step) in single. • Low control: […] of 90% DMSO in half the wells of columns 23-24 (0.45% in final). • High control: 50 nL of reference compound (e.g. compound of Example 7 in WO 2006/122806) in the other half of columns 23-24 (2.5 μM in final). • Standard: 50 nL of reference compound as just mentioned diluted as the test compounds in columns 21-22 • 20 mL ‘buffer’ are prepared per assay: • 200 μL of 1M TRIS HCl pH7.5 (10 mM in final) • 60 μL of 1M MgCl2 (3 mM in final) • 500 μL of 2M NaCl (50 mM in final) • 100 μL of 10% CHAPS (0.05% in final) • 200 μL of 100 mM DTT (1 mM in final) • 18.94 mL of nanopure water • 10 mL ‘PI’ are prepared per assay: • 200 μL of 1 mg/ml L-alpha-Phosphatidylinositol (Liver Bovine, Avanti Polar Lipids Cat. No. 840042C MW=909.12) prepared in 3% OctylGlucoside (10 μg/ml in final) • 9.8 mL of ‘buffer’ • 10 mL ‘ATP’ are prepared per assay: • 6.7 μL of 3 mM stock of ATP giving a final concentration of 1 μM per well • 10 mL of ‘buffer’ • 2.5 mL of each PI3K construct are prepared per assay in ‘PI’ with the following final concentration: • 10 nM PI3K alfa EMV B1075 • 25 nM beta EMV BV949 • 10 nM delta EMV BV1060 • 150 nM gamma EMV BV950 • 5 μL of ‘PI/PI3K’ are added per well. • 5 μl ‘ATP’ are added per well to start the reaction. • The plates are then incubated at room temperature for 60 minutes (alfa, beta, delta) or 120 minutes (gamma). • The reaction is terminated by the addition of 10 μL Kinase-Glo (Promega Cat. No. #6714). • The assay plates are read after 10 minutes in Synergy 2 reader (BioTek, Vermont USA) with an integration time of 100 milliseconds and sensitivity set to 191. • Output: The High control is around 60′000 counts and the Low control is 30′000 or lower • This luminescence assay gives a useful Z′ ratio between 0.4 and 0.7
PI3Kδ BV-1060 p85(iSH2)-Gly Linker-p110d(Full-Length)-C-Term His Tag
PI3K delta is purified in three chromatographic steps: immobilized metal affinity chromatography on a Ni Sepharose resin (GE Healthcare), gel filtration utilizing a Superdex 200 26/60 column (GE Healthcare), and finally a anion exchange step on a Q-HP column (GE Healthcare). All buffers are chilled to 4° C. and lysis is performed chilled on ice. Column fractionation is performed rapidly at room temperature. Typically frozen insect cells are lysed in a hypertonic lysis buffer and applied to a prepared IMAC column. The resin is washed with 3-5 column volumes of lysis buffer, followed by 3-5 column volumes wash buffer containing 45 mM imidazole, and the target protein is then eluted with a buffer containing 250 mM imidazole. Fractions are analyzed by Coomassie stained SDS-PAGE gels, and fractions containing the target protein are pooled and applied to a prepared GFC column. Fractions from the GFC column are analyzed by Coomassie stained SDS-PAGE gels, and fractions containing the target protein are pooled. The pool from the GFC column is diluted into a low salt buffer and applied to a prepared Q-HP column. The column is washed with low salt buffer until a stable A280 baseline absorbance is achieved, and eluted using a 20 column volume gradient from 0 mM NaCl to 500 mM NaCl. Again, fractions from the Q-HP column are analyzed by Coomassie stained SDS-PAGE gels, and fractions containing the target protein are pooled. The final pool is dialyzed into a storage buffer containing 50% glycerol and stored at −20° C. The final pool is assayed for activity in the phosphoinostitol kinase assay. […]

T1 sequence (O00329 with tags, fused parts or gaps limits assumed): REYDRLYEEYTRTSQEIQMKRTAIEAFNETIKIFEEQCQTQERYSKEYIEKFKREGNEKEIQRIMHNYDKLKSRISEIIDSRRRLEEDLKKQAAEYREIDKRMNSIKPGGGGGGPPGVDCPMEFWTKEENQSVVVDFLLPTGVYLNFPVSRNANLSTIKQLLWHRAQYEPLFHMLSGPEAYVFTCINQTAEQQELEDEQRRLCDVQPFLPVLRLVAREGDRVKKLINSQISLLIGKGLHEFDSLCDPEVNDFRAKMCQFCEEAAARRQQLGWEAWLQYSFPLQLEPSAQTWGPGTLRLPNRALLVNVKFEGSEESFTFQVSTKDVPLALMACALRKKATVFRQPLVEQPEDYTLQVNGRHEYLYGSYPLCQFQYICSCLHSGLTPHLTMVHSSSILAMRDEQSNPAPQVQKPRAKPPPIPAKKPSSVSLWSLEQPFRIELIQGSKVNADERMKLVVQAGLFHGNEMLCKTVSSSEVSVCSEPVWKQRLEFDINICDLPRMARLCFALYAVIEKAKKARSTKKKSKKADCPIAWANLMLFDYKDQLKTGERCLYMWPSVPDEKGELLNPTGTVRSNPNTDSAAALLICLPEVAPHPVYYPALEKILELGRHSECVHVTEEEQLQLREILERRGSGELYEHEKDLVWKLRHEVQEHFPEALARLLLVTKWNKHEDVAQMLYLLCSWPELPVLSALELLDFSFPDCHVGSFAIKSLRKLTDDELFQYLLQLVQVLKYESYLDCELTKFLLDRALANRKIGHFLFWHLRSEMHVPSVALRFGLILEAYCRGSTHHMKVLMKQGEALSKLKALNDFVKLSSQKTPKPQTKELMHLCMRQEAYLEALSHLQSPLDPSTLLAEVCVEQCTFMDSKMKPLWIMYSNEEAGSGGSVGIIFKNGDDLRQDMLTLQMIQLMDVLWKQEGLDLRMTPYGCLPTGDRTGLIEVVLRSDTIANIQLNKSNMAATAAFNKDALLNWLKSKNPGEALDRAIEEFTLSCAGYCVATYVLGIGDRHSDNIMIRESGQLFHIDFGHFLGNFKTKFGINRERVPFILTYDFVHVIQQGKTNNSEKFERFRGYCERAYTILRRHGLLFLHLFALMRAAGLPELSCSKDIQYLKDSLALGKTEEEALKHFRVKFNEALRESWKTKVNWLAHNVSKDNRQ

| SMILES | IC50 [nM] |
| --- | --- |
| CNc1cc(-c2ccc3ncc4c(c3c2)n(-c2cccnc2C)c(=O)n4C)cnc1C [Example 2.32, 3-Methyl-8-(6-methyl-5-methylamino-pyridin-3-yl)-1-(2-methyl-pyridin-3-yl)-1,3-dihydro-imidazo[4,5-c]quinolin-2-one] | 31 |
| Cc1ncccc1-n1c(=O)n(C)c2cnc3ccc(-c4cncc(NC(C)C)c4)cc3c21 [Example 2.24, 8-(5-Isopropylamino-pyridin-3-yl)-3-methyl-1-(2-methyl-pyridin-3-yl)-1,3-dihydro-imidazo[4,5-c]quinolin-2-one] | 31 |
| CNc1cncc(-c2ccc3ncc4c(c3c2)n(-c2cccnc2C)c(=O)n4C)c1 [Example 2.26, 3-Methyl-8-(5-methylamino-pyridin-3-yl)-1-(2-methyl-pyridin-3-yl)-1,3-dihydro-imidazo[4,5-c]quinolin-2-one] | 46 |
| CCOc1cc(-c2ccc3ncc4c(c3c2)n(-c2cccnc2C)c(=O)n4C)cnc1COC [Example 2.28, 8-(5-Ethoxy-6-methoxymethyl-pyridin-3-yl)-3-methyl-1-(2-methyl-pyridin-3-yl)-1,3-dihydro-imidazo[4,5-c]quinolin-2-one] | 54 |

Other lines, results leading:

| IC50 [nM] | SMILES |
| --- | --- |
| 10 | COc1ncc(-c2ccc3ncc4c(c3c2)n(-c2ccc(N3CC(O)C3)nc2C)c(=O)n4C)c(OC)n1 [Example 29.6, 8-(2,4-Dimethoxy-pyrimidin-5-yl)-1-[6-(3-hydroxy-azetidin-1-yl)-2-methyl-pyridin-3-yl]-3-methyl-1,3-dihydro-imidazo[4,5-c]quinolin-2-one] |
| 46 | COCc1ncc(-c2ccc3ncc4c(c3c2)n(-c2ccc(N3CCC3)nc2C)c(=O)n4C)cc1OC [Example 23.6, 1-(6-Azetidin-1-yl-2-methyl-pyridin-3-yl)-8-(5-methoxy-6-methoxymethyl-pyridin-3-yl)-3-methyl-1,3-dihydro-imidazo[4,5-c]quinolin-2-one] |
| 31 | COCc1ncc(-c2ccc3ncc4c(c3c2)n(-c2ccc(N3CCC3)nc2C)c(=O)n4C)cc1OC(C)C [Example 23.2, 1-(6-Azetidin-1-yl-2-methyl-pyridin-3-yl)-8-(5-isopropoxy-6-methoxymethyl-pyridin-3-yl)-3-methyl-1,3-dihydro-imidazo[4,5-c]quinolin-2-one] |
| 32 | Cc1nc(N2CCC2)ccc1-n1c(=O)n(C)c2cnc3ccc(-c4cncc(OC(C)C)c4)cc3c21 [Example 23.9, 1-(6-Azetidin-1-yl-2-methyl-pyridin-3-yl)-8-(5-isopropoxy-pyridin-3-yl)-3-methyl-1,3-dihydro-imidazo[4,5-c]quinolin-2-one] |
| 84 | Cc1nc(N2CCC2)ccc1-n1c(=O)n(C)c2cnc3ccc(-c4cncc(N5CCC5)c4)cc3c21 [Example 23.1, 1-(6-Azetidin-1-yl-2-methyl-pyridin-3-yl)-8-(5-azetidin-1-yl-pyridin-3-yl)-3-methyl-1,3-dihydro-imidazo[4,5-c]quinolin-2-one] |
| 11 | COc1ncc(-c2ccc3ncc4c(c3c2)n(-c2ccc(N3CC[C@H](O)C3)nc2C)c(=O)n4C)c(OC)n1 [Example 32.3, 8-(2,4-Dimethoxy-pyrimidin-5-yl)-1-[6-((S)-3-hydroxy-pyrrolidin-1-yl)-2-methyl-pyridin-3-yl]-3-methyl-1,3-dihydro-imidazo[4,5-c]quinolin-2-one] |
| 88 | CNc1ncc(-c2ccc3ncc4c(c3c2)n(-c2ccc(N(C)CCO)nc2C)c(=O)n4C)cn1 [Example 26.2, 1-{6-[(2-Hydroxy-ethyl)-methyl-amino]-2-methyl-pyridin-3-yl}-3-methyl-8-(2-methylamino-pyrimidin-5-yl)-1,3-dihydro-imidazo[4,5-c]quinolin-2-one] |
| 27 | CCNc1ncc(-c2ccc3ncc4c(c3c2)n(-c2ccc(C(C)(C)O)nc2C)c(=O)n4C)cn1 [Example 31.7, 8-(2-Ethylamino-pyrimidin-5-yl)-1-[6-(1-hydroxy-1-methyl-ethyl)-2-methyl-pyridin-3-yl]-3-methyl-1,3-dihydro-imidazo[4,5-c]quinolin-2-one] |
| 19 | CCNc1cc(-c2ccc3ncc4c(c3c2)n(-c2ccc(N3CC(O)C3)nc2C)c(=O)n4C)cnc1CO [Example 29.2, 8-(5-Ethylamino-6-hydroxymethyl-pyridin-3-yl)-1-[6-(3-hydroxy-azetidin-1-yl)-2-methyl-pyridin-3-yl]-3-methyl-1,3-dihydro-imidazo[4,5-c]quinolin-2-one] |
| 55 | CNc1ncc(-c2ccc3ncc4c(c3c2)n(-c2ccc(N3CCC(O)C3)nc2C)c(=O)n4C)cn1 (stereo not drawn) [Example 27.2, 1-[6-(3-Hydroxy-pyrrolidin-1-yl)-2-methyl-pyridin-3-yl]-3-methyl-8-(2-methylamino-pyrimidin-5-yl)-1,3-dihydro-imidazo[4,5-c]quinolin-2-one] |
| 3 | CNc1ncc(-c2ccc3ncc4c(c3c2)n(-c2ccc(C(C)(C)O)nc2C)c(=O)n4C)cc1F [Example 31.1, 8-(5-Fluoro-6-methylamino-pyridin-3-yl)-1-[6-(1-hydroxy-1-methyl-ethyl)-2-methyl-pyridin-3-yl]-3-methyl-1,3-dihydro-imidazo[4,5-c]quinolin-2-one] |

Same assay, conditions: read-out: PI3Kdelta/IC50

| SMILES | IC50 [nM] |
| --- | --- |
| Cc1cccnc1-n1c(=O)n(C)c2cnc3ccc(-c4ccc(CO)nc4)cc3c21 [Example 3.9, 8-(6-Hydroxymethyl-pyridin-3-yl)-3-methyl-1-(3-methyl-pyridin-2-yl)-1,3-dihydro-imidazo[4,5-c]quinolin-2-one] | 583 |
| Cc1ccncc1-n1c(=O)n(C)c2cnc3ccc(-c4ccc(CO)nc4)cc3c21 [Example 4.1, 8-(6-Hydroxymethyl-pyridin-3-yl)-3-methyl-1-(4-methyl-pyridin-3-yl)-1,3-dihydro-imidazo[4,5-c]quinolin-2-one] | 406 |
| Cc1ncccc1-n1c(=O)n(C)c2cnc3ccc(-c4ccc(OCCCN(C)C)nc4)cc3c21 [Example 2.10, 8-[6-(3-Dimethylamino-propoxy)-pyridin-3-yl]-3-methyl-1-(2-methyl-pyridin-3-yl)-1,3-dihydro-imidazo[4,5-c]quinolin-2-one] | 855 |

Now from value to compound:

| IC50 [nM] | SMILES |
| --- | --- |
| 21 | CNc1ccc(-c2ccc3ncc4c(c3c2)n(-c2ccc(F)nc2C)c(=O)n4C)cn1 [Example 7.4, 1-(6-Fluoro-2-methyl-pyridin-3-yl)-3-methyl-8-(6-methylamino-pyridin-3-yl)-1,3-dihydro-imidazo[4,5-c]quinolin-2-one] |
| 5 | Cc1nc(F)ccc1-n1c(=O)n(C)c2cnc3ccc(-c4cnc(N)c(C(F)(F)F)c4)cc3c21 [Example 7.1, 8-(6-Amino-5-trifluoromethyl-pyridin-3-yl)-1-(6-fluoro-2-methyl-pyridin-3-yl)-3-methyl-1,3-dihydro-imidazo[4,5-c]quinolin-2-one] |
| 71 | CCOc1ccc(-c2ccc3ncc4c(c3c2)n(-c2ccc(F)nc2C)c(=O)n4C)cn1 [Example 7.3, 8-(6-Ethoxy-pyridin-3-yl)-1-(6-fluoro-2-methyl-pyridin-3-yl)-3-methyl-1,3-dihydro-imidazo[4,5-c]quinolin-2-one] |

Source: patent US20100311714A1, “1H-IMIDAZO[4,5-c]QUINOLINONE COMPOUNDS” (priority 2009, published 2010)
